Experimental findings from patent US20260207626A1, “SYNTHETIC TRITERPENOIDS AND COMPOSITIONS THEREOF IN WEIGHT MANAGEMENT, SKELETAL MUSCLE FUNCTION, AND APPETITE SUPPRESSION” (The Board of Regents of the University of Texas System, priority 2022, published 2026) are described below.

Entries after “also recorded” stand apart in the source; their conditions may differ.

The subject of assay [1] is IκB-α (Ser32). Briefly: Western blot of LPS-induced IκB-α phosphorylation in L6-GLUT4myc myotubes. The format is cell-based, rat. To be noted: 500 nM CDDO-EA 1 hr then 100 ng/ml LPS 1 hr. An excerpt:
To examine the anti-inflammatory properties of CDDO-EA in skeletal muscle cells, CDDO-EA was examined for its effect on nuclear factor-kappa B (NF-κB) activity in L6-GLUT4myc muscle cells, in the context of LPS-mediated inflammatory responses in L6-GLUT4myc muscle cells. All experiments were independently repeated one to four times and done in duplicate or triplicate, and data were statistically analyzed by One-Way ANOVA or unpaired t-test, two tailed.
Cells were studied with vehicle alone [0.125% dimethyl sulfoxide (DMSO)] and LPS with and without CDDO-EA. […]
Western blotting and subcellular fractionation: L6-GLUT4myc myoblasts (4×10^4 cells/ml, 2 ml/well) were seeded onto 6-well dishes and differentiated with differentiation medium for 7 days. […] Protein concentrations were determined using the Pierce BCA Protein Assay (Thermo Fisher Scientific), and equal amounts of protein were separated by electrophoresis and subsequently transferred to nitrocellulose membranes. Membranes were analyzed using the following antibodies from Cell Signaling Technology: phosphorylated NF-κB (Ser536) (93 H1, cat #3033,1:1000), phosphorylated IKB-α (Ser32) (14D4, cat #2859,1:1000), IKB-α (44D4, cat #4812, 1:1000), phosphorylated p38 (Thr180/Tyr182) (cat #9211, 1:1000), p38 (cat #9212, 1:1000). […] Bands were quantitated using ImageQuant (GE Healthcare). […]

A short description of assay [2]: Serum glucose and insulin, oral glucose tolerance test (OGTT) in mice fed LFD or HFD with or without CDDO-EA. The format is in vivo, C57B16/J mice. Here is the method:
Data were statistically analyzed by One-Way ANOVA, Two-Way ANOVA with repeated measures, or Two-Way ANOVA with Tukey's multiple comparison test. Throughout the collection of blood samples, OGTTs, and measurement of bodyweight, mice were unrestrained and awake. Blood samples were collected via tail snip before start of experimental feeding and then every two weeks. Oral glucose tolerance tests (OGTTs) were performed after the six-week experimental feeding, and blood samples were collected via tail snip during the OGTT. For OGTT, mice were given 2 g of glucose/kg of body weight by gavage after a five hour fast (36). Glucose levels were measured using a glucometer (Contour), and insulin concentrations were measured using an ELISA (Mercodia). Mice were weighed once a week. Glucose and insulin serum levels were measured every two weeks.
Glucose and insulin levels were measured in the subject animals to determine if prevention of obesity by CDDO-EA in a high fat diet (HFD) chow regimen and in a low fat diet (LFD) regimen coincided with a reduction in hyperglycemia and hyperinsulinemia.

The test system of assay [3] is GLUT4. Briefly: Colorimetric assay of cell surface GLUT4 in L6GLUT4myc myotubes (preliminary data). Format: cell-based, rat. To be noted: FIG. 30. Here is the method: Is CDDO-EA-mediated GLUT4 translocation dependent on AMPK activation? The catalytic subunit alpha-1 (α1) of AMPK will be KD by siRNA. Cells will be treated with CDDO-EA (500 nM, 1 hour), insulin ([…] for 15 min), or insulin and CDDO-EA to determine if there is a synergistic effect on GLUT4 translocation. Also, cells will be treated with the AMPK activator, 5-aminoimidazole-4-carboxamide ribonucleoside (AICAR, 1 mM, 40 minutes), as a positive control. We will use a colorimetric assay to quantitatively measure the levels of cell surface GLUT4 in 3T3-L1 adipocytes and L6GLUT4myc myotubes^37. […] GLUT4 translocation will be detected via immunofluorescence. Subcellular protein fractionation will be conducted to detect GLUT4 in the sarcolemma for myotubes and plasma membrane for adipocytes and GLUT2 in the plasma membrane of hepatocytes via Western blotting. GLUT2 will be measured in hepatocytes because GLUT2 is the most abundant glucose transporter in hepatocytes^38. To measure glucose uptake, a non-radioactive, plate-based bioluminescent assay (Glucose Uptake-Glo, Promega) will be performed. Using Glucose Uptake-Glo, insulin induces glucose uptake in L6GLUT4my myotubes. Phosphorylation of AMPK at Thr^172 and phosphorylation of ACC at Ser^79 indicates activation of the AMPK pathway. Thus, phosphorylation of AMPK Thr^172 and ACC Ser^79 will be shown through Western blotting. […]

The nature of assay [4]: OGTT and fasting glucose at week 6 with pair-fed group. Format: in vivo, C57BL/6J mice. As for the experimental part: FIG. 25—OGTT Area Under the Curve. Oral GTT performed at week 6 of experimental feeding, and mice were dosed on lean mass (2 g/kg lean mass). C57BL/6J mice were fed a HFD with or without incorporation of CDDO-EA (diet containing 0.04% CDDO-EA) or LFD or HFD pair-fed for 6 weeks (n=5). Data are represented as mean±SEM (One-way ANOVA).
Fasting glucose levels were measured at day 42 of experimental feeding. C57BL/6J mice were fed a HFD with or without incorporation of CDDO-EA (diet containing 0.04% CDDO-EA) or a LFD or were HFD pair-fed for 6 weeks (n=5). Data are represented as mean±SEM (One-way ANOVA).
To determine the answer to this question, a pair-fed/weight-matched group was included in the study. OGTT was performed at end of the 6-week study.

Regarding `CCNC(=O)[C@]12CCC(C)(C)C[C@H]1C1C(=O)C=C3[C@@]4(C)C=C(C#N)C(=O)C(C)(C)[C@@H]4CC[C@@]3(C)[C@]1(C)CC2` (stereo partly drawn) [CDDO-EA, (4aS,6aR,6bS,8aR,12aS,14bS)-11-cyano-N-ethyl-2,2,6a,6b,9,9,12a-heptamethyl-10,14-dioxo-1,3,4,5,6,6a,6b, 7,8,8a,9,10,12a, 14,14a, 14b-hexadecahydropicene-4a (2H)-carboxamide], in assay [1], the “LPS-induced IκB-α phosphorylation” value was “decreased LPS-induced NF-κB and nuclear factor of kappa light polypeptide gene enhancer in B-cells inhibitor-alpha (IκB) phosphorylation; also recorded: inhibited the LPS-induced phosphorylation of IκB-α; also recorded: inhibits lipopolysaccharide (LPS)-induced NF-κB and Inhibitory kappa B alpha (IκB-α) phosphorylation”. In assay [2] (HFD + CDDO-EA, after 6 weeks (FIG. 6B)), the OGTT serum glucose entry is listed as “prevented increased serum glucose; also recorded: significantly decrease to glucose levels before the HFD experimental feeding; also recorded: prevents glucose intolerance”. Besides, the OGTT serum insulin entry in assay [2] (HFD + CDDO-EA, after 6 weeks (FIG. 7B)) is “prevented increased serum glucose (FIG. 6B) and insulin concentrations; also recorded: insulin levels did not increase significantly; also recorded: prevents hyperinsulinemia”. Besides, in assay [2] (HFD with CDDO-EA, weeks 0-6 (FIG. 13A)), the “serum glucose levels during feeding” value is “did not increase throughout the six-week feeding; also recorded: prevents glucose intolerance”. In addition, the “serum insulin levels during feeding” value in assay [2] (HFD with CDDO-EA, weeks 0-6 (FIG. 13B)) is given as “remained significantly higher in mice fed only a HFD compared to mice fed a HFD with CDDO-EA; also recorded: prevents hyperinsulinemia”. Besides, in assay [2] (LFD + CDDO-EA, after 6 weeks (FIG. 6A)), the serum glucose levels entry was “no significant increase or decrease in serum glucose levels; also recorded: did not affect glucose and insulin levels of mice fed LFD with CDDO-EA”. Moreover, the insulin levels entry in assay [2] (LFD + CDDO-EA, after 6 weeks (FIG. 7A)) is “overlap with the insulin levels before experimental feeding; also recorded: did not affect glucose and insulin levels of mice fed LFD with CDDO-EA”. Also, the “GLUT4 translocation to the cell surface (colorimetry assay)” value in assay [3] is listed as “induce GLUT4 translocation to the cell surface”. The fasting glucose entry in assay [4] (day 42, HFD+CDDO-EA compared to HFD ad lib) was “significant lowered fasting glucose levels; also recorded: lowers fasting glucose levels”; in assay [4] (day 42, HFD+CDDO-EA compared to HFD pair-fed), “close to significant effect on fasting glucose”. The “glucose tolerance (OGTT Area Under the Curve)” value in assay [4] (week 6, HFD+CDDO-EA compared to HFD ad lib) was “significant improvement in glucose tolerance”; in assay [4] (week 6, HFD+CDDO-EA compared to HFD pair-fed), “slight improvement in glucose tolerance”.
